Melting point data for 108 compounds are collected here from a melting point compilation (Tetko et al.).

As to `O=C(O)C1CCCCN1` (stereo not drawn), the melting point (in general, the temperature, or range, at which the solid turns liquid) amounted to 277 °C.

`O=C(c1ccccc1)c1cccc([N+](=O)[O-])c1` returned a melting point of 92 to 94 °C.

Turning to `Cc1c(-c2ccccc2)sc2ncnc(Cl)c12`, the melting point is 133 to 135 °C.

In turn, `COC(=N)C1=CC(O)C(O)C(CO)O1` (stereo not drawn) gave a melting point of 196 °C.

On to `CCCCCCC(CCCCCC)CCCCCC`, for which the melting point is -28.3 °C.

`CC(=O)c1csc(-c2cc(C)on2)n1` displayed a melting point of 130 to 132 °C.

`CCC1(O)CC2CN(CCc3c([nH]c4ccccc34)C(C(=O)OC)(c3cc4c(cc3OC)N(C)C3C(O)(C(=O)OC)C(OC(C)=O)C5(CC)C=CCN6CCC43C65)C2)C1` (stereo not drawn) returned a melting point of 267 °C.

In the case of `Cn1ccc(-c2ccc(N=C=O)cc2)n1`, the melting point was 67 to 70 °C.

The compound `COC(=O)c1sccc1NC(=O)CBr` displayed a melting point of 91 to 94 °C.

For the compound `CCCCCCNC(=O)n1cc(F)c(=O)[nH]c1=O`, the melting point is 110 °C.

Turning to `COc1ccc(C(=O)c2ccccc2O)c(O)c1`, the melting point was determined as 68 °C.

For `O=Cc1ccccc1Oc1ccccn1`, the melting point lay within 51 to 52 °C.

`Cc1nc(C)c(CO)s1`: the melting point was 56 to 57 °C.

Compound `COc1ccccc1C1OC(=O)CC1C(=O)O` (stereo not drawn) displayed a melting point of 124 to 125 °C.

Take `Cc1cc(S(=O)(=O)Cc2ccc(N)cc2)c(C)cc1Cl`: the melting point fell in the range of 156 to 158 °C.

Compound `O=C(NCCCCc1ccccc1)c1cc([N+](=O)[O-])cc([N+](=O)[O-])c1` showed a melting point of 165 to 167 °C.

In the case of `FC(F)(F)C(Cl)Br` (stereo not drawn), the melting point is -118 °C.

On to `Nc1ccc(-n2cncn2)cc1`, for which the melting point was 142 to 144 °C.

Regarding `O=C1NC(=O)C(=Cc2cccc(C=C3C(=O)NC(=O)NC3=O)c2)C(=O)N1`, the melting point was determined as 340 °C.

The compound `COc1ccc(-c2nnc3n2NC(c2ccc(OC)cc2)S3)cc1` (stereo not drawn) yielded a melting point of 152 °C.

Take `O=C(Nc1nnc(-c2ccc(Cl)cc2)o1)c1ccc(Cl)cc1`: the melting point is 278 to 279 °C.

On to `O=C(Nc1ccccc1)c1nn(-c2ccccc2)c(-c2ccc([N+](=O)[O-])cc2)c1S(=O)(=O)c1ccccc1`, for which the melting point came to 240 °C.

In turn, `O=C(O)CCP(=O)(O)O` gave a melting point of 165 to 166 °C.

For the compound `CC(Cl)C(C)Cl` (stereo not drawn), the melting point is -80 °C.

With `C=C(C)C(=C)C`, the melting point is -76 °C.

Consider `Nc1ccc(N)c2c1C(=O)c1c(N)ccc(N)c1C2=O`, for which the melting point stood at 285 °C.

Turning to `O=Cc1cnc(Br)s1`, the melting point is 94 °C.

`Cn1ccc(-c2ccc(CCl)cc2)n1` had a melting point of 78 to 80 °C.

`COc1cc(C(=O)OCc2cccc(COC(=O)c3cc(OC)c(OC)c(OC)c3)n2)cc(OC)c1OC` registered a melting point of 119 °C.

In turn, `CCOC(=O)c1cc(-c2ccco2)nn1C` came in with a melting point of 57 to 58 °C.

In the case of `CC(=C(C)c1ccccc1)c1ccccc1`, the melting point lay within 64 to 66 °C.

Regarding `O=C(O)CS(=O)(=O)c1ccccc1`, the melting point was 112 to 114 °C.

`O=C(O)C=Cc1ccc(F)cc1C(F)(F)F`: the melting point was 182 °C.

The compound `Cc1cc(C)c(I)c(C)c1` yielded a melting point of 29 °C.

The compound `CCOC(=O)C1=NN(c2ccc([N+](=O)[O-])cc2)C2(C)CC3(c4ccccc4)N(c4ccc([N+](=O)[O-])cc4)N=C(C(=O)OCC)N3c3ccccc3N12` (stereo not drawn) returned a melting point of 237 to 239 °C.

For `CCCCCCCCCCCCCCCCO`, the melting point turned out to be 51.1 °C.

With `CC1CCCCS1` (stereo not drawn), the melting point was -58 °C.

Turning to `O=C1OC2(c3ccc(Cl)cc3Oc3cc(Cl)ccc32)c2ccccc21`, the melting point is 253 to 255 °C.

On to `CCNC(C)CC` (stereo not drawn), for which the melting point is -104 °C.

In turn, `NNC(=O)c1ccc(N)c(N)c1` yielded a melting point of 149 °C.

In turn, `COc1cc2c(cc1OC)C(=O)NCC2` had a melting point of 175 °C.

On to `O=C(O)c1cc(Cl)ccc1N=NC1SC(=S)NC1=O` (stereo not drawn), for which the melting point was 210 to 212 °C.

As to `OCC(I)CC(F)(F)C(F)(F)C(F)(F)C(F)(F)C(F)(F)C(F)(F)C(F)(F)C(F)(F)F` (stereo not drawn), the melting point lay within 54 to 55 °C.

`CSc1nc2[nH]c(=S)n(-c3ccccc3C(=O)O)c(=O)c2n1C` yielded a melting point of 284 °C.

Regarding `Oc1nc(C2CCCCC2)nn1-c1ccccc1`, the melting point was found to be 197 °C.

Compound `CC(C)COC(=O)c1ccccc1O` came in with a melting point of 5.9 °C.

The compound `N#Cc1ccc(C(F)(F)F)cc1Cl` yielded a melting point of 83 °C.

Compound `CC(C)C(O)(c1ccc(OC(F)(F)F)cc1)c1cncnc1` (stereo not drawn) registered a melting point of 95.3 °C.

The compound `CCc1ccccc1-n1c(C)nc2ccccc2c1=O` had a melting point of 81 °C.

`COc1ccc(CCc2cc(OC)c3ccccc3n2)cc1OC` gave a melting point of 116 °C.

Consider `CC(=O)Nc1ccc2c(OC(C)=O)c(-c3ccccc3)[nH]c2c1`, for which the melting point is 219 °C.

As for `NNc1ncc(C(=O)OCc2ccc(Cl)cc2)c(C(F)(F)F)n1`, the melting point was in the range of 111 to 113 °C.

The compound `Cc1cc(=O)n(-c2ccccc2)[nH]1` had a melting point of 128 °C.

On to `Ic1cc(I)cc(I)c1`, for which the melting point was found to be 184 °C.

`CC(C)(Br)C(=O)NC12CC3CC(CC(C3)C1)C2` gave a melting point of 114 to 115 °C.

`COc1ccc(Br)cc1F` came in with a melting point of 16 °C.

In the case of `Nc1ccc(Cc2ccc(N)c(Cl)c2)cc1Cl`, the melting point is 110 °C.

`C/C(=N\c1ccc(C(=O)O)cc1)c1c(O)c2ccccc2n(-c2ccccc2)c1=O` yielded a melting point of 236 to 238 °C.

`O=C(O)C(CCCc1ccccc1)c1ccccc1` (stereo not drawn) showed a melting point of 78 °C.

For the compound `O=C(O)CC[C@H]1CC[C@H](CCC(=O)O)C1=O`, the melting point stood at 121 °C.

Compound `NC(=O)C=CC(N)=O` showed a melting point of 276 °C.

Turning to `O=C1c2ccccc2C(=O)C1c1ccc(Cl)cc1`, the melting point is 146 °C.

The compound `COc1cc(N)c(C(=O)O)cc1OC` gave a melting point of 155 to 160 °C.

For the compound `NC(CCO)c1ccccc1` (stereo not drawn), the melting point was in the range of 70 to 77 °C.

With `C=C(C)n1c(=O)[nH]c2ccccc21`, the melting point fell in the range of 120 to 124 °C.

For `C=C(C)CNc1ccc(C(C)C(=O)O)cc1` (stereo not drawn), the melting point is 107 °C.

Regarding `Cc1ccc(S(=O)(=O)N2C(C)C2c2ccccc2)cc1` (stereo not drawn), the melting point is 188 to 190 °C.

As to `CC12CC3CC(C1)CC(C)(C3)C2`, the melting point is -30 °C.

`CCNc1nc(Cl)nc(NC(C)(C)C)n1` yielded a melting point of 178 °C.

Consider `Brc1ccc2occ(Br)c2c1`, for which the melting point was 77 to 78 °C.

Turning to `O=[N+]([O-])c1ccc2c(c1)Cc1cc([N+](=O)[O-])ccc1-2`, the melting point turned out to be 334 °C.

`CC(CSc1ccc(Cl)cc1)C(=O)O` (stereo not drawn) had a melting point of 63 to 65 °C.

As to `CN(C)c1ccc(C(C=C2C=Cc3ccccc3N2N=O)c2ccccc2)cc1` (stereo not drawn), the melting point amounted to 196 °C.

Compound `N#C/C(=C/c1ccc(Cl)cc1Cl)c1nc2ccccc2c(=O)[nH]1` yielded a melting point of 298 to 300 °C.

In turn, `c1ccc(-c2sc(-c3ccccc3)c3ccccc23)cc1` yielded a melting point of 114 to 119 °C.

As to `C=C1C(=O)C23C(OC(C)=O)CC4C(C)(C)CCCC4(COC(C)=O)C2C(OC(C)=O)CC1C3OC(C)=O` (stereo not drawn), the melting point is 226 °C.

For the compound `N#Cc1ccc(Oc2ccccc2)cc1`, the melting point lay in the range of 45 to 48 °C.

`O=C(O)CCSCSCCC(=O)O` displayed a melting point of 138 to 140 °C.

As for `CC(C)CCCCCOC(=O)c1ccccc1C(=O)OCCCCCC(C)C`, the melting point is -4 °C.

Turning to `CCCCCC(O)CCCC` (stereo not drawn), the melting point was found to be 8 °C.

Compound `O=C(OCCOCCOC(=O)c1ccccc1)c1ccccc1` showed a melting point of 33.5 °C.

Regarding `O=Cc1sc(-c2ccccc2)nc1-c1ccccc1`, the melting point was in the range of 121 to 123 °C.

Regarding `O=C1C(=Cc2ccccc2)CCCC1=Cc1ccccc1`, the melting point was 118 °C.

As to `FC(F)(F)c1cc(Cl)c2nc(S)[nH]c2c1`, the melting point fell in the range of 310 to 312 °C.

The compound `NC(=O)c1cnccn1` gave a melting point of 189 °C.

As to `C1CCCCCCCCC1`, the melting point amounted to 10 °C.

In turn, `CC(C)(C)C1CCC(O)CC1` (stereo not drawn) registered a melting point of 66 °C.

In the case of `CC1=NN(CN2CCOCC2)C(=O)/C1=N\Nc1cc(Cl)c(Cl)cc1Cl`, the melting point stood at 175 °C.

On to `CCNCC`, for which the melting point is -50 °C.

For `ON=Cc1ccc(F)cc1`, the melting point was found to be 83.5 °C.

Consider `O=C(O)c1cnn2ccccc12`, for which the melting point was 199 to 201 °C.

Turning to `CCOC(=O)CC(=O)C(C)C`, the melting point was -9 °C.

In turn, `Cc1cc(=O)oc(C)c1C(=O)Oc1cccc(Cl)c1` had a melting point of 96 °C.

Turning to `CC(C)c1ccccc1OS(=O)(=O)c1ccc([N+](=O)[O-])cc1`, the melting point is 98 to 100 °C.

`NS(=O)(=O)c1ccc(Sc2ccc(Cl)cc2)s1` registered a melting point of 133 to 136 °C.

As for `CCC(=C(c1ccccc1)c1ccc(OCCN(C)C)cc1)c1ccccc1`, the melting point is 96 °C.

Consider `O=C(NCO)NCO`, for which the melting point was 126 °C.

With `CC(=O)c1cc(C)cc([N+](=O)[O-])c1O`, the melting point worked out at 135 °C.

For the compound `NC(=O)NC12CC3CC(CC(C3)C1)C2`, the melting point amounted to 250 °C.

On to `Cc1c(C(=O)O)nnn1Cc1ccccc1`, for which the melting point was in the range of 170 to 171 °C.

With `CC(=O)CCc1ccc(O)cc1`, the melting point was 82 to 84 °C.

`O=S(=O)(Cl)c1ccc(S(=O)(=O)N2CCCC2)cc1` registered a melting point of 133 to 134 °C.

`CCOC(=O)Oc1c(-c2ccccc2)[nH]c2cc([N+](=O)[O-])ccc12` came in with a melting point of 170 °C.

With `CC(C)N1CSc2nnc(-c3ccc([N+](=O)[O-])cc3)n2C1`, the melting point amounted to 260 °C.

As to `COc1c(Cl)cc([N+](=O)[O-])cc1Cl`, the melting point was 97 to 100 °C.

Take `COC1=CC(=O)OC1`: the melting point lay in the range of 60 to 65 °C.

As to `O=Cc1c[nH]nc1-c1ccc(C(F)(F)F)cc1`, the melting point lay within 113 to 115 °C.

For `Cc1c(S(=O)(=O)Cl)cnn1-c1ccccc1`, the melting point came out at 57 °C.
